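Cells were grown in 96-well plates and exposed to each compound for 48 hours at five concentrations; endpoints were interpolated linearly between bracketing concentrations, or set to the highest concentration if not reached. GI50 marks 50% less growth.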 Activity calls are given as the source filed them. Rule as the data show it: active = GI50 up to about 1.1 µM and inactive = higher.
Key:
Assay in all cases: NCI-60 cell line screen, 48 h
CAKI-1 = tested on: CAKI-1
A549 = tested on: A549
Malme-3M = tested on: Malme-3M
NCI-H522 = tested on: NCI-H522
SW-620 = tested on: SW-620
OVCAR-5 = tested on: OVCAR-5
BT-549 = tested on: BT-549
SF-539 = tested on: SF-539
A498 = tested on: A498
MCF7 = tested on: MCF7
MDA-MB-231 = tested on: MDA-MB-231
SN12C = tested on: SN12C
LOX IMVI = tested on: LOX IMVI
Hs-578T = tested on: Hs-578T
HCT-15 = tested on: HCT-15
MDA-N = tested on: MDA-N
RXF 393 = tested on: RXF 393
HT-29 = tested on: HT-29
T47D = tested on: T47D
HL-60 = tested on: HL-60
IGROV-1 = tested on: IGROV-1
NCI/ADR-RES = tested on: NCI/ADR-RES
DU-145 = tested on: DU-145
NCI-H23 = tested on: NCI-H23
OVCAR-8 = tested on: OVCAR-8
786-0 = tested on: 786-0
SK-MEL-28 = tested on: SK-MEL-28
MOLT-4 = tested on: MOLT-4
MDA-MB-435 = tested on: MDA-MB-435
UO-31 = tested on: UO-31
OVCAR-3 = tested on: OVCAR-3
TK-10 = tested on: TK-10
UACC-257 = tested on: UACC-257
PC-3 = tested on: PC-3
SF-295 = tested on: SF-295
NCI-H226 = tested on: NCI-H226
CCRF-CEM = tested on: CCRF-CEM
COLO 205 = tested on: COLO 205
UACC-62 = tested on: UACC-62
M14 = tested on: M14
U-251 = tested on: U-251
SF-268 = tested on: SF-268
SK-MEL-2 = tested on: SK-MEL-2
NCI-H460 = tested on: NCI-H460
ACHN = tested on: ACHN
SK-OV-3 = tested on: SK-OV-3
SK-MEL-5 = tested on: SK-MEL-5
HCT-116 = tested on: HCT-116
KM12 = tested on: KM12
K562 = tested on: K562
HOP-62 = tested on: HOP-62
RPMI-8226 = tested on: RPMI-8226
SNB-19 = tested on: SNB-19
SNB-75 = tested on: SNB-75

Measured: GI50

O=C(CCCN1CCC2(CC1)CC(=O)N(N1CCOCC1)C2=O)c1ccc(F)cc1
inactive: CAKI-1 > 100 µM | A549 > 100 µM | Malme-3M > 100 µM | NCI-H522 > 100 µM | SW-620 > 100 µM | OVCAR-5 > 100 µM | BT-549 > 100 µM | SF-539 > 100 µM | A498 > 100 µM | MCF7 > 100 µM | MDA-MB-231 > 100 µM | SN12C > 100 µM | LOX IMVI > 100 µM | Hs-578T > 100 µM | MDA-N > 100 µM | RXF 393 > 100 µM | HT-29 > 100 µM | T47D > 100 µM | HL-60 > 100 µM | IGROV-1 > 100 µM | NCI/ADR-RES > 100 µM | DU-145 > 100 µM | NCI-H23 > 100 µM | OVCAR-8 > 100 µM | 786-0 > 100 µM | SK-MEL-28 > 100 µM | MOLT-4 > 100 µM | MDA-MB-435 > 100 µM | UO-31 > 100 µM | OVCAR-3 > 100 µM | TK-10 > 100 µM | UACC-257 > 100 µM | PC-3 > 100 µM | SF-295 > 100 µM | NCI-H226 99.3 µM | CCRF-CEM > 100 µM | COLO 205 > 100 µM | UACC-62 > 100 µM | M14 > 100 µM | U-251 > 100 µM | SF-268 > 100 µM | SK-MEL-2 > 100 µM | NCI-H460 > 100 µM | ACHN > 100 µM | SK-OV-3 > 100 µM | SK-MEL-5 > 100 µM | HCT-116 > 100 µM | KM12 > 100 µM | K562 > 100 µM | HOP-62 > 100 µM | RPMI-8226 > 100 µM | SNB-19 > 100 µM | SNB-75 > 100 µM
> 100 µM: HCT-15
